Target: T1, mitochondrial ATP synthase (Mus musculus, UniProt P56480+Q03265)
T1 construct: from tissue; host or cells: mouse heart, isolated mitochondria (fresh or frozen)
Assay: ATP hydrolysis (proton release/ECAR, Seahorse XF96) in fresh heart mitochondria
Type: biochemical
Conditions: for changes in ATP hydrolysis: fresh heart mitochondria (FIG. 1, FIG. 2)
Text: To assess whether the fraction of synthetic and reverse hydrolytic activities of mitochondrial ATP synthase can be measured in the same preparation, a protocol was developed to monitor changes in oxygen consumption and proton release in response to changes in mitochondrial ATP synthase activity. The proton released and the concomitant changes in the pH can be monitored using the ECAR (extracellular acidification) channel in the Agilent Seahorse XF analyzer using isolated mitochondria, to ensure that the changes in pH cannot be attributed to glycolysis or other contributors to ECAR.
Mice were anesthetized with isoflurane followed by a cervical dislocation, and the heart was immediately removed and placed in ice cold relaxation buffer (5 mM sodium pyrophosphate, 100 mM KCl, 5 mM EGTA, 5 mM HEPES; pH 7.4). The heart was squeezed with tweezers to remove blood, minced with scissors, and then placed in a glass-glass Dounce homogenizer with 3 mL of HES homogenization buffer (250 mM sucrose, 5 mM HEPES, 1 mM EDTA; pH to 7.2, adjusted with KOH). The heart tissue was homogenized first with the loose pestle and followed by the tight pestle. The homogenized tissue was placed in a pre-chilled 15 ml conical tube and centrifuged at 900×g (4° C.) for 10 minutes (min). The supernatant was removed, placed in a new tube and centrifuged again at 900×g for 10 min. The supernatant was then transferred to 2 mL microcentrifuge tubes and centrifuged at 10,000×g (4° C.) for 10 min. The mitochondrial pellets were re-suspended in ice cold HES buffer and mitochondrial protein was measured with a BCA assay (Pierce). The concentrated mitochondrial pellet was stored on ice.
Heart mitochondria (0.75-1.5 μg) were loaded into a Seahorse XF96 microplate in 20 μL of MAS (70 mM Sucrose, 220 mM Mannitol, 5 mM KH2PO4, 5 mM MgCl2, 1 mM EGTA, 2 mM HEPES; pH 7.2) plus 1% free fatty acid BSA containing substrates. The loaded plate was centrifuged at 2,000×g for 5 min at 4° C. (no brake) and an additional 130 μL of MAS was added to each well. When assessing compounds effect on respirometry, the compounds were added at this point at the indicated concentration in MAS buffer. To avoid disrupting mitochondrial adherence to the bottom of the plate, MAS was added using a multichannel pipette pointed at a 45° angle to the top of the well-chamber, as instructed by the manufacturer. Substrate concentrations in the well when assay was starting in state 4 were as follow: (i) 5 mM pyruvate+5 mM malate or ii) 5 mM succinate+2 μM rotenone. Substrate concentrations in the well when assay was starting in state 3 were as follow: (i) 5 mM pyruvate+5 mM malate+4 mM ADP or ii) 5 mM succinate+2 μM rotenone+4 mM ADP. Injections were performed as indicated in the figure descriptions at the following final concentration in the well: oligomycin (3.5 μM), FCCP (4 μM), Antimycin A (2 μM). Compounds were added at the indicated concentration.
ATP hydrolysis capacity or state 4 acidification was measured using Seahorse XF96 as described in Divakaruni et al. (2018) Anal Biochem 552:60-65 and Acin-Perez et al. (2021) Life 11(9):949, in MAS (70 mM Sucrose, 220 mM Mannitol, 5 mM KH2PO4, 5 mM MgCl2, 1 mM EGTA, 2 mM HEPES; pH 7.2). Plates were loaded with 0.75-1.5 μg of mouse heart mitochondria, or 25 μg of cell lysate. Cell lysates were prepared by subjecting the samples to 4 cycles of free thaw (liquid nitrogen—37° C. water bath) before measuring protein concentration. When assessing compounds effect on respirometry, the compounds were added in MAS after sample centrifugation. Initial respiration of the samples was sustained by the addition of 5 mM succinate+2 μM rotenone in the MAS after centrifugation. Injections were performed at the following final concentration in the well: Antimycin A (2 μM), oligomycin (5 μM), FCCP (1 μM), ATP (20 mM). To assess maximal ATP concentration, ATP was injected consecutively. […]

For `Oc1ccc2c(c1)OC(c1ccc(O)c(C(F)(F)F)c1)C(O)C2` (single isomer, unassigned) [Compound 77b, 2-(4-hydroxy-3-(trifluoromethyl)phenyl)chromane-3,7-diol], the “changes in ATP hydrolysis” value was “very mild changes”, the change in hydrolysis (fresh mitochondria, Complex I) was “no clear change” and the decrease in hydrolysis (fresh mitochondria, Complex II) was 20%.
`Oc1cc(O)c2c(c1)O[C@H](c1ccc(O)c(O)c1)[C@H](O)C2` [Epicatechin, (+)Epicatechin, reference compound] was tested, and the decrease in hydrolysis (mitochondria preparation and substrate not given) was 10-25%.
In the case of `COc1cc(C2Oc3ccccc3CC2O)ccc1F` (single isomer, unassigned) [Compound 75b, 2-(4-fluoro-3-methoxyphenyl)chroman-3-ol], the “changes in ATP hydrolysis” value is reported as “very mild changes”.

— patent US20240254135A1, “POLYPHENOL COMPOUNDS” (Epirium Bio Inc., priority 2022, published 2024)
